pIC50: −log10 of the molar value.
target: T1, human EP3 receptor (Homo sapiens, UniProt P43115); test: Cellular in vitro assay for determining EP3 receptor activity (human EP3 cell line, sulprostone-stimulated calcium luminescence); format: cell-based; settings: CHO cells expressing human EP3 and mitochondrial Clytin; antagonist mode, sulprostone at EC50; read-out: EP3 CHO mtCLY ANTAG IC50
T1 construct: expressed in transfected cells; host or cells: CHO K1 (Chinese Hamster Ovary), stably co-transfected with Galpha16 and mitochondrial clytin
T1 sequence (P43115 1-390): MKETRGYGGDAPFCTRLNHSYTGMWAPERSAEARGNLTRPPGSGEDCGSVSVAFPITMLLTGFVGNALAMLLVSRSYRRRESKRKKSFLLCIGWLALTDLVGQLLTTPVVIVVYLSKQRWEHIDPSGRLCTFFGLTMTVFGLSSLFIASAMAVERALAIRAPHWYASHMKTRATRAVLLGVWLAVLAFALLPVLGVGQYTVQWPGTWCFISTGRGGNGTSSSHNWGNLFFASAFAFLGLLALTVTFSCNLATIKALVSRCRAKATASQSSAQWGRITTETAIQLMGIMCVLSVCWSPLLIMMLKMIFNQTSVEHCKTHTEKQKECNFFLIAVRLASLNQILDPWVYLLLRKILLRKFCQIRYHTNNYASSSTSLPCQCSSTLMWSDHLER
Experimental: B-1. Cellular In Vitro Assay for Determining EP3 Receptor Activity
The identification of antagonists of the EP3 receptor from humans and rats as well as the quantification of the activity of the compounds of the invention was carried out using recombinant cell lines. These cell lines originally derive from a hamsters ovary epithelial cell (Chinese Hamster Ovary, CHO K1, ATCC: American Type Culture Collection, Manassas, Va. 20108, USA). The test cell lines constitutively express the human or rat EP3 receptors. The naturally Gαi-coupled human and rat EP3 receptors were stably co-transfected with Gα16 into cells that are also stably transfected with a mitochondrial form of the calcium-sensitive photoproteins Clytin (human EP3) or Photina (rat EP3), which, after reconstitution with the cofactor coelenterazine, emit light when there are increases in free calcium concentrations (Nature 1992, 358, 325-327; Gene 1995, 153 (2), 273-274). The resulting EP3 receptor cells react to stimulation of the recombinantly expressed EP3 receptors by the agonist sulprostone with intracellular release of calcium ions, which can be quantified by the resulting photoprotein luminescence. Antagonists inhibit the receptor signaling, leading to reduced calcium release and luminescence. The bioluminescence of the cell lines is detected using a suitable luminometer (Trends Pharmacol. Sci. 1996, 17, 235-237).
Human and Rat EP3 Cell Lines:
On the day before the assay, the cells are plated out in culture medium (OptiMEM, 1% FCS, 2 mM glutamine, 10 mM HEPES, 5 μg/ml coelenterazine) in 384-well microtiter plates and kept in a cell incubator (96% humidity, 5% v/v CO2, 37° C.). On the day of the assay, test compounds in various concentrations are placed for 10 minutes in the wells of the microtiter plate before the agonist sulprostone at EC50 concentration is added. The resulting light signal is measured immediately in a luminometer. All concentrations are measured in quadruples.

Q: With Cc1ccc(-c2cn3nc(C(=O)NC(C)C(O)C(F)(F)F)cc3c(=O)[nH]2)cc1C (stereo not drawn) [6-355] as the compound, how does the pIC50 read?
A: Its pIC50 is 8.24.

Q: How did the pIC50 turn out when COCc1c(C(=O)N[C@@H](c2ccc(F)cc2)C(F)(F)CO)nn2cc(-c3ccc(Cl)c(F)c3)[nH]c(=O)c12 [6-624] was run?
A: Its pIC50 is 8.17.

Q: With O=C(NC(c1ccc(F)cc1)C1(O)CC1)c1nn2cc(-c3ccc(Cl)c(F)c3)[nH]c(=O)c2c1C1CC1 (racemic) [6-96] as the compound, how does the pIC50 read?
A: Its pIC50 is 9.31.

Q: How did the pIC50 turn out when Cc1cc(-c2cn3nc(C(=O)NC4(c5ccc(F)cc5)CN(C)C4)c(C4CC4)c3c(=O)[nH]2)c(F)cc1Cl [6-593] was run?
A: Its pIC50 is 8.07.

Q: How did the pIC50 turn out when Cc1cccc2ncc(-c3cn4nc(C(=O)NC5(c6ccccc6)CCCC5)c(C(C)C)c4c(=O)[nH]3)cc12 [Example 4-73, 6-(5-Methylquinolin-3-yl)-4-oxo-N-(1-phenylcyclopentyl)-3-(propan-2-yl)-4,5-dihydropyrazolo[1,5-a]pyrazine-2-carboxamide] was run?
A: Its pIC50 is 8.63.

Q: With COc1ccc(C2(NC(=O)c3nn4cc(-c5ccc(C)c(F)c5)[nH]c(=O)c4c3C3CC3)CN(C)C2)cc1 [6-365] as the compound, how does the pIC50 read?
A: The pIC50 was 8.50.

Q: Cc1ccc(-c2[nH]c(=O)c3c(C4CC4)c(C(=O)N[C@@H](c4ccc(F)cc4)C(C)(C)O)nn3c2F)cc1Cl [6-664] was tested. Which pIC50 did it give?
A: Its pIC50 is 8.28.

Q: With Cc1c(C(=O)NC2CCc3ccccc32)nn2c(C)c(-c3ccc4ccccc4c3)[nH]c(=O)c12 (stereo not drawn) [Example 3-75, N-(2,3-Dihydro-1H-inden-1-yl)-3,7-dimethyl-6-(2-naphthyl)-4-oxo-4,5-dihydropyrazolo[1,5-a]pyrazine-2-carboxamide] as the compound, how does the pIC50 read?
A: Its pIC50 is 8.19.

Q: Cc1cccc2ncc(-c3cn4nc(C(=O)NCc5cnn(C)c5)c(C(C)C)c4c(=O)[nH]3)cc12 [Example 4-37, N-[(1-Methyl-1H-pyrazol-4-yl)methyl]-6-(5-methylquinolin-3-yl)-4-oxo-3-(propan-2-yl)-4,5-dihydropyrazolo[1,5-a]pyrazine-2-carboxamide] was tested. Which pIC50 did it give?
A: Its pIC50 is 8.70.

Q: COc1ccc(CCNC(=O)c2nn3cc(-c4ccc5ccccc5c4)[nH]c(=O)c3c2C(C)C)cc1OC [6-85] was tested. Which pIC50 did it give?
A: The pIC50 was 9.05.

Q: How did the pIC50 turn out when COC[C@@H](C)NC(=O)c1nn2cc(-c3ccc4ccccc4c3)[nH]c(=O)c2c1C(F)(F)F [6-516] was run?
A: The pIC50 was 8.36.

Q: How did the pIC50 turn out when CCn1nccc1C(C)NC(=O)c1nn2cc(-c3cnc4cccc(C)c4c3)[nH]c(=O)c2c1C(C)C (stereo not drawn) [Example 4-34, N-[1-(1-Ethyl-1H-pyrazol-5-yl)ethyl]-3-isopropyl-6-(5-methylquinolin-3-yl)-4-oxo-4,5-dihydropyrazolo[1,5-a]pyrazine-2-carboxamide] was run?
A: The pIC50 was 8.96.

Q: With Cc1ccc(-c2cn3nc(C(=O)N[C@H](CCO)c4ccccc4)cc3c(=O)[nH]2)cc1C [Example 1-14, 6-(3,4-Dimethylphenyl)-N-[(1R)-3-hydroxy-1-phenylpropyl]-4-oxo-4,5-dihydropyrazolo[1,5-a]-pyrazine-2-carboxamide] as the compound, how does the pIC50 read?
A: Its pIC50 is 9.85.

Q: Cc1cc(-c2cn3nc(C(=O)N[C@@H](C)C4CC4)c(C(F)(F)C(F)(F)F)c3c(=O)[nH]2)ccc1Cl [6-478] was tested. Which pIC50 did it give?
A: Its pIC50 is 8.92.

Q: How did the pIC50 turn out when C[C@@H](NC(=O)c1nn2cc(-c3ccc4ccccc4c3)[nH]c(=O)c2c1C1CC1)c1ccc(F)cc1 [Example 1-81] was run?
A: Its pIC50 is 8.80.

Q: With CC(CN1CCOCC1)NC(=O)c1nn2cc(-c3ccc4ccccc4c3)[nH]c(=O)c2c1C(F)(F)F (racemic) [6-522] as the compound, how does the pIC50 read?
A: The pIC50 was 7.77.

Q: Cc1ccc(-c2cn3nc(C(=O)N[C@@H](CO)C(F)(F)F)c(C4CC4)c3c(=O)[nH]2)cc1F [6-393] was tested. Which pIC50 did it give?
A: Its pIC50 is 9.07.

Q: How did the pIC50 turn out when O=C(NCC(O)C(F)(F)F)c1nn2cc(-c3ccc4c(c3)OCCO4)[nH]c(=O)c2c1C1CC1 (racemic) [6-465] was run?
A: Its pIC50 is 8.76.

Q: With Cc1ccc(-c2cn3nc(C(=O)N[C@@H](c4ccc(F)cc4)C(C)(C)O)cc3c(=O)[nH]2)c(F)c1C [6-646] as the compound, how does the pIC50 read?
A: The pIC50 was 8.27.

Q: With O=C(NC(CO)c1ccc2c(c1)OCO2)c1cc2c(=O)[nH]c(-c3ccc4ccccc4c3)cn2n1 (stereo not drawn) [Example 2-28, N-[1-(1,3-Benzodioxol-5-yl)-2-hydroxyethyl]-6-(2-naphthyl)-4-oxo-4,5-dihydropyrazolo[1,5-a]pyrazine-2-carboxamide] as the compound, how does the pIC50 read?
A: The pIC50 was 9.03.

Q: How did the pIC50 turn out when Cc1cccc2ncc(-c3cn4nc(C(=O)NCC(C)(C)C)c(C(C)C)c4c(=O)[nH]3)cc12 [Example 4-33, N-(2,2-Dimethylpropyl)-6-(5-methylquinolin-3-yl)-4-oxo-3-(propan-2-yl)-4,5-dihydropyrazolo[1,5-a]pyrazine-2-carboxamide] was run?
A: Its pIC50 is 8.72.

Q: How did the pIC50 turn out when CC(C)(C)OC(=O)NCC(NC(=O)c1cc2c(=O)[nH]c(-c3ccc4cccnc4c3)cn2n1)c1ccc(F)cc1 (stereo not drawn) [6-29] was run?
A: The pIC50 was 8.64.

Q: COc1ccccc1C(C)NC(=O)c1nn2c(C)c(-c3ccc4ccccc4c3)[nH]c(=O)c2c1C (stereo not drawn) [Example 3-28, N-[1-(2-Methoxyphenyl)ethyl]-3,7-dimethyl-6-(2-naphthyl)-4-oxo-5H-pyrazolo[1,5-a]pyrazine-2-carboxamide] was tested. Which pIC50 did it give?
A: The pIC50 was 8.37.

Q: Cc1cc(-c2cn3nc(C(=O)N[C@@H](c4ccc(F)cc4)C(F)(F)CO)c(C(F)(F)F)c3c(=O)[nH]2)ccc1Cl [Example 1-171, 6-(4-Chloro-3-methylphenyl)-N-[(1S)-2,2-difluoro-1-(4-fluorophenyl)-3-hydroxpropyl]-4-oxo-3-(trifluoromethyl)-4,5-dihydropyrazolo[1,5-a]pyrazine-2-carboxamide] was tested. Which pIC50 did it give?
A: The pIC50 was 8.99.

Q: CCN1CCC(NC(=O)c2nn3cc(-c4ccc(C)c(F)c4)[nH]c(=O)c3c2C2CC2)(C(F)(F)F)C1 (racemic) [6-404] was tested. Which pIC50 did it give?
A: Its pIC50 is 8.23.

Q: With CN1CC(NC(=O)c2nn3cc(-c4ccc(Cl)c(F)c4)[nH]c(=O)c3c2C2CC2)(c2ccc(F)cc2)C1 [Example 1-169, 6-(4-Chloro-3-fluorophenyl)-3-cyclopropyl-N-[3-(4-fluorophenyl)-1-methylazetidin-3-yl]-4-oxo-4,5-dihydropyrazolo[1,5-a]pyrazine-2-carboxamide] as the compound, how does the pIC50 read?
A: The pIC50 was 8.47.

Q: With CC(CC(F)(F)F)NC(=O)c1cc2c(=O)[nH]c(-c3ccc4ccccc4c3)cn2n1 (stereo not drawn) [6-52] as the compound, how does the pIC50 read?
A: The pIC50 was 8.45.

Q: How did the pIC50 turn out when Cc1ccc(-c2cn3nc(C(=O)NCCN(C)C4CC4)c(C4CC4)c3c(=O)[nH]2)cc1F [6-384] was run?
A: Its pIC50 is 8.47.

Q: How did the pIC50 turn out when O=C(NC1CCN(C2CC2)C1)c1nn2cc(-c3ccc4ccccc4c3)[nH]c(=O)c2c1C(F)(F)F (single isomer, unassigned) [6-500] was run?
A: The pIC50 was 8.17.

Q: With O=C(N[C@H](CCO)c1ccccc1)c1cc2c(=O)[nH]c(-c3ccc4ccccc4c3)cn2n1 [6-541] as the compound, how does the pIC50 read?
A: Its pIC50 is 9.01.

Q: How did the pIC50 turn out when COc1ccccc1C(C)NC(=O)c1nn2cc(-c3cnc4cccc(C)c4c3)[nH]c(=O)c2c1C(C)C (stereo not drawn) [Example 4-4, 3-Isopropyl-N-[1-(2-methoxyphenyl)ethyl]-6-(5-methyl-3-quinolyl)-4-oxo-5H-pyrazolo[1,5-a]pyrazine-2-carboxamide] was run?
A: Its pIC50 is 8.61.

Q: How did the pIC50 turn out when Cc1ccc(-c2cn3nc(C(=O)N[C@@H](c4ccc(F)cc4)C(C)(C)O)cc3c(=O)[nH]2)cc1F [6-644] was run?
A: Its pIC50 is 8.18.

Q: With Cc1cc(-c2cn3nc(C(=O)N[C@@H](c4ccc(F)cc4)C(C)(C)O)c(C(F)(F)F)c3c(=O)[nH]2)ccc1F [6-648] as the compound, how does the pIC50 read?
A: Its pIC50 is 8.56.

Q: Cc1ccc(-c2cn3nc(C(=O)NC4(c5ccc(F)cc5)CN(C)C4)c(C(F)(F)F)c3c(=O)[nH]2)cc1Cl [Example 1-153, 6-(3-Chloro-4-methylphenyl)-N-[3-(4-fluorophenyl)-1-methylazetidin-3-yl]-4-oxo-3-(trifluoromethyl)-4,5-dihydropyrazolo[1,5-a]pyrazine-2-carboxamide] was tested. Which pIC50 did it give?
A: Its pIC50 is 8.27.

Q: COCc1c(C(=O)N[C@@H](c2ccc(F)cc2)C(C)(C)O)nn2cc(-c3ccc(C)c(Cl)c3)[nH]c(=O)c12 [6-627] was tested. Which pIC50 did it give?
A: Its pIC50 is 9.24.

Q: With Cc1ccc(-c2cn3nc(C(=O)NC(CO)c4ccc(F)cc4)c(C(F)(F)F)c3c(=O)[nH]2)cc1Cl (single isomer, unassigned) [6-156] as the compound, how does the pIC50 read?
A: The pIC50 was 8.89.

Q: How did the pIC50 turn out when Cc1cc(-c2cn3nc(C(=O)NCC(C)(N)C(F)(F)F)c(C4CC4)c3c(=O)[nH]2)ccc1Cl (racemic) [6-319] was run?
A: Its pIC50 is 8.93.

Q: N#Cc1c(C(=O)N[C@@H](CCO)c2ccc(F)cc2)nn2cc(-c3ccc4ccccc4c3)[nH]c(=O)c12 [Example 1-72, 3-Cyano-N-[(1S)-1-(4-fluorophenyl)-3-hydroxpropyl]-6-(naphthalen-2-yl)-4-oxo-4,5-dihydropyrazolo[1,5-a]pyrazine-2-carboxamide] was tested. Which pIC50 did it give?
A: Its pIC50 is 8.18.

Q: C[C@@H](NC(=O)c1nn2cc(-c3cc(F)c(Cl)c(F)c3)[nH]c(=O)c2c1C1CC1)C1CC1 [6-473] was tested. Which pIC50 did it give?
A: Its pIC50 is 8.48.

From patent US20220324865A1 (Bayer Aktiengesellschaft, priority 2018, published 2022)
